Test results published in the C3SDB collision cross section collection.

How the values were obtained:
[1] = instrument: TW, calibrated with phosphatidylcholines (ESI+) and phosphatidylethanolamines (ESI-), doubly charged cardiolipins calibrated with poly-DL-…
[2] = [M+H]+; instrument: TW

## CCCCCC/C=C\CCCCCCCC(=O)OC[C@H](COP(=O)(O)OCCNC(=O)CCCCCCCCCCCCCCC)OC(=O)CCCCCCCCCCCCC [AcylPE(46:1)]
[1]; [M-H]-
  collision cross section (N2): 310.12 Å²

## CCCCCC/C=C\CCCCCCCC(=O)OC[C@H](COP(=O)(O)OCCNC(=O)CCCCCCCCCCCCCCC)OC(=O)CCCCCCCCCCCCCC [AcylPE(47:1)]
[1]; [M+Na]+
  collision cross section (N2): 321.4 Å²
[1]; [M-H]-
  collision cross section (N2): 313.42 Å²

## CCCCCC/C=C\CCCCCCCC(=O)OC[C@H](COP(=O)(O)OCCNC(=O)CCCCCCCCCCCCCCC)OC(=O)CCCCCCCC1CC1CCCCCCCC (stereo partly specified) [AcylPE(51:2)]
[1]; [M-H]-
  collision cross section (N2): 325.65 Å²

## CCCCCC/C=C\CCCCCCCC(=O)OC[C@H](COP(=O)(O)OCCNC(=O)CCCCCCCCCCCCCCC)OC(=O)CCCCCCC/C=C\CCCCCCCCCC [AcylPE(52:2)]
[1]; [M-H]-
  collision cross section (N2): 328.83 Å²

## CCCCCC/C=C\CCCCCCCC(=O)OC[C@H](COP(=O)(O)OC[C@@H](O)COC(=O)CCCCCCCCCCCCCCC)OC(=O)CCCCCCCCCCCCC [AcylPG(46:1)]
[1]; [M-H]-
  collision cross section (N2): 310.71 Å²

## CCCC/C=C\CCCCCCCC(=O)O[C@H](COC(=O)CCCCCCC/C=C\CCCCCC)COP(=O)(O)OC[C@@H](O)COC(=O)CCCCCCCCCCCCCCC [AcylPG(46:2)]
[1]; [M-H]-
  collision cross section (N2): 312.53 Å²

## CCCCCC/C=C\CCCCCCCC(=O)OC[C@H](COP(=O)(O)OC[C@@H](O)COC(=O)CCCCCCCCCCCCCCC)OC(=O)CCCCCCC/C=C\CCCCCC [AcylPG(48:2)]
[1]; [M-H]-
  collision cross section (N2): 315.28 Å²

## CCCCCC/C=C\CCCCCCCC(=O)OC[C@H](COP(=O)(O)OC[C@@H](O)COC(=O)CCCCCCCCCCCCCCC)OC(=O)CCCCCCCC1CC1CCCCCC (stereo partly specified) [AcylPG(49:2)]
[1]; [M-H]-
  collision cross section (N2): 318.87 Å²

## CCCCCC/C=C\CCCCCCCC(=O)OC[C@H](COP(=O)(O)OC[C@@H](O)COC(=O)CCCCCCCCCCCCCCC)OC(=O)CCCCCCCC1CC1CCCCCCCC (stereo partly specified) [AcylPG(51:2)]
[1]; [M-H]-
  collision cross section (N2): 326.79 Å²

## CCCCCC/C=C\CCCCCCCC(=O)OC[C@H](O)COP(=O)(O)OC[C@@H](COC(=O)CCCCCCC/C=C\CCCCCC)OC(=O)CCCCCCCC1CC1CCCCCCCC (stereo partly specified) [AcylPG(51:3)]
[1]; [M-H]-
  collision cross section (N2): 325 Å²

## CCCCCC/C=C\CCCCCCCC(=O)OC[C@H](COP(=O)(O)OC[C@@H](O)COC(=O)CCCCCCCCCCCCCCC)OC(=O)CCCCCCCC1CC1CCCCCCCCCC (stereo partly specified) [AcylPG(53:2)]
[1]; [M-H]-
  collision cross section (N2): 333.78 Å²

## O=C(CCCN1CCN(c2ccccn2)CC1)c1ccc(F)cc1 [Azaperone]
[2]
  collision cross section (N2): 180.3 Å²

## CC(NC(=O)C(NC(=O)O)C(C)C)c1nc2ccc(F)cc2s1 (stereo unspecified) [Benthiavalicarb]
[2]
  collision cross section (N2): 173.38 Å²

## O=C(Nc1ccccc1-c1ccc(Cl)cc1)c1cccnc1Cl [Boscalid]
[2]
  collision cross section (N2): 171.67 Å²

## CC(C)(C)NCC(O)c1cc(Br)c(N)c(Br)c1 (stereo unspecified) [Brombuterol]
[2]
  collision cross section (N2): 167 Å²

## CCCCCC/C=C\CCCCCCCC(=O)OC(COC(=O)CCCCCCCCCCCCCCC)COP(=O)(O)OCC(O)COP(=O)(O)OCC(COC(=O)CCCCCCCCCCCCCCC)OC(=O)CCCCCCC/C=C\CCCCCC (stereo unspecified) [CL(64:2)]
[1]; [M+2K]2+
  collision cross section (N2): 422.9 Å²
[1]; [M-2H]2-
  collision cross section (N2): 397 Å²

## CCCCCC/C=C\CCCCCCCC(=O)OC(COC(=O)CCCCCCCCCCCCCCC)COP(=O)(O)OCC(O)COP(=O)(O)OCC(COC(=O)CCCCCCCCCCCCCCC)OC(=O)CCCCCCCC1CC1CCCCCC (stereo unspecified) [CL(65:2)]
[1]; [M+2K]2+
  collision cross section (N2): 425.4 Å²
[1]; [M-2H]2-
  collision cross section (N2): 399.77 Å²

## CCCCCC/C=C\CCCCCCCC(=O)OCC(COP(=O)(O)OCC(O)COP(=O)(O)OCC(COC(=O)CCCCCCC/C=C/CCCCCCCC)OC(=O)CCCCCCC/C=C\CCCCCC)OC(=O)CCCCCCC/C=C\CCCCCCCC (stereo unspecified) [CL(68:4)]
[1]; [M-2H]2-
  collision cross section (N2): 406.81 Å²

## CCCCCCCC/C=C\CCCCCCCC(=O)OC(COC(=O)CCCCCCCCCCCCCCC)COP(=O)(O)OCC(O)COP(=O)(O)OCC(COC(=O)CCCCCCCC1CC1CCCCCCCC)OC(=O)CCCCCCCCCCCCCCC (stereo unspecified) [CL(69:2)]
[1]; [M-2H]2-
  collision cross section (N2): 408.93 Å²

## CCCCCC/C=C\CCCCCCCC(=O)OCC(COP(=O)(O)OCC(O)COP(=O)(O)OCC(COC(=O)CCCCCCCC1CC1CCCCCCCC)OC(=O)CCCCCCC/C=C\CCCCCC)OC(=O)CCCCCCC/C=C\CCCCCCCC (stereo unspecified) [CL(69:4)]
[1]; [M-2H]2-
  collision cross section (N2): 409.28 Å²

## Nc1c(Cl)cc(C(O)CNC2CCC(O)CC2)cc1Cl (stereo unspecified) [Clencyclohexerol]
[2]
  collision cross section (N2): 164.7 Å²

## C[C@H]1C[C@H]2[C@@H]3CCC4=CC(=O)C=C[C@]4(C)[C@@]3(F)[C@@H](O)C[C@]2(C)[C@@]1(O)C(=O)CCl [Clobetasol]
[2]
  collision cross section (N2): 201.29 Å²

## C[C@]12CC[C@H]3[C@@H](CCC4=C(Cl)C(=O)CC[C@@]43C)[C@@H]1CC[C@@H]2O [Clostebol]
[2]
  collision cross section (N2): 173.6 Å²

## COP(=O)(OC)OC=C(Cl)Cl [Dichlorvos]
[2]
  collision cross section (N2): 133.07 Å²

## O=C(O)Cc1ccccc1Nc1c(Cl)cccc1Cl [Diclofenac]
[2]
  collision cross section (N2): 157.2 Å²

## Fc1ccc(cc1)N\3c2cc(c(F)cc2C(=O)C(/C(=O)O)=C/3)N4CCN(C)CC4 [Difloxacine]
[2]
  collision cross section (N2): 192.3 Å²

## CCCCCCC1CC1CCCCCCCC(=O)O[C@H](CO)COP(=O)([O-])OCC[NH3+] (stereo partly specified) [LPE(0:0/17:1)]
[1]; [M+H]+
  collision cross section (N2): 214.85 Å²
[1]; [M+Na]+
  collision cross section (N2): 219.32 Å²
[1]; [M-H]-
  collision cross section (N2): 207.62 Å²

## CCCCCCCCC1CC1CCCCCCCC(=O)O[C@H](CO)COP(=O)([O-])OCC[NH3+] (stereo partly specified) [LPE(0:0/19:1)]
[1]; [M+H]+
  collision cross section (N2): 221.32 Å²
[1]; [M+Na]+
  collision cross section (N2): 226.07 Å²
[1]; [M-H]-
  collision cross section (N2): 214.39 Å²

## CCCCCC/C=C/CCCCCCCC(=O)OC[C@@H](O)COP(=O)([O-])OCC[NH3+] [LPE(16:1/0:0)]
[1]; [M+H]+
  collision cross section (N2): 206.28 Å²
[1]; [M+Na]+
  collision cross section (N2): 211.09 Å²
[1]; [M-H]-
  collision cross section (N2): 203.75 Å²

## CCCCCCCCCCCCCCC(=O)O[C@H](CO)COP(=O)(O)OCC(O)CO (stereo partly specified) [LPG(15:0)]
[1]; [M-H]-
  collision cross section (N2): 208.96 Å²

## CCCCC1CC1CCCCCCCC(=O)O[C@H](CO)COP(=O)(O)OCC(O)CO (stereo partly specified) [LPG(15:1)]
[1]; [M-H]-
  collision cross section (N2): 206.44 Å²

## CCCCCCC1CC1CCCCCCCC(=O)OC[C@@H](O)COP(=O)(O)OCC(O)CO (stereo partly specified) [LPG(17:1)]
[1]; [M-H]-
  collision cross section (N2): 214.26 Å²

## CCCCCCCC/C=C/CCCCCCCC(=O)OC[C@@H](O)COP(=O)(O)OCC(O)CO (stereo partly specified) [LPG(18:1)]
[1]; [M-H]-
  collision cross section (N2): 217.72 Å²

## CCCCCCCCC1CC1CCCCCCCC(=O)OC[C@@H](O)COP(=O)(O)OCC(O)CO (stereo partly specified) [LPG(19:1)]
[1]; [M-H]-
  collision cross section (N2): 221.18 Å²

## CCCCCCCC/C=C\CCCCCCCC(=O)OC(COC(=O)CCCCCCCCCCCCCCCCC)COP(=O)(O)O (stereo unspecified) [PA(36:1)]
[1]; [M-H]-
  collision cross section (N2): 261.81 Å²

## CCCCCCCCCCCCCCCC(=O)OCC(COP(=O)(O)OCCN)OC(=O)CCCCCCCCCCCCC (stereo unspecified) [PE(30:0)]
[1]; [M+H]+
  collision cross section (N2): 265.85 Å²
[1]; [M-H]-
  collision cross section (N2): 251.05 Å²

## CCCCCC/C=C\CCCCCCCC(=O)OCC(COP(=O)(O)OCCN)OC(=O)CCCCCCCCCCCCC (stereo unspecified) [PE(30:1)]
[1]; [M+H]+
  collision cross section (N2): 260.6 Å²
[1]; [M-H]-
  collision cross section (N2): 248.78 Å²

## CCCCCCCCCCCCCCCC(=O)OCC(COP(=O)(O)OCCN)OC(=O)CCCCCCCCCCCCCC (stereo unspecified) [PE(31:0)]
[1]; [M+H]+
  collision cross section (N2): 269.25 Å²
[1]; [M-H]-
  collision cross section (N2): 253.95 Å²

## CCCCCCCCCCCCCCCC(=O)OCC(COP(=O)(O)OCCN)OC(=O)CCCCCCCC1CC1CCCCCC (stereo unspecified) [PE(33:1)]
[1]; [M+H]+
  collision cross section (N2): 273.6 Å²
[1]; [M-H]-
  collision cross section (N2): 259.91 Å²

## CCCCCC/C=C\CCCCCCCC(=O)OCC(COP(=O)(O)OCCN)OC(=O)CCCCCCC/C=C\CCCCCCCC (stereo unspecified) [PE(34:2)]
[1]; [M+H]+
  collision cross section (N2): 271.97 Å²
[1]; [M-H]-
  collision cross section (N2): 261.72 Å²

## CCCCCCCC/C=C\CCCCCCCC(=O)OCC(COP(=O)(O)OCCN)OC(=O)CCCCCCC/C=C\CCCCCCCC (stereo unspecified) [PE(36:2)]
[1]; [M+H]+
  collision cross section (N2): 276.82 Å²
[1]; [M-H]-
  collision cross section (N2): 269.17 Å²

## CCCCCCCCCCCCCCCC(=O)OCC(COP(=O)(O)OCC(O)CO)OC(=O)CCCCCCCCCCCCC (stereo unspecified) [PG(30:0)]
[1]; [M+Na]+
  collision cross section (N2): 272.75 Å²
[1]; [M-H]-
  collision cross section (N2): 258.02 Å²

## CCCCCCCCCCCCCCCC(=O)OCC(COP(=O)(O)OCC(O)CO)OC(=O)CCCCCCCCCCCCCCC (stereo unspecified) [PG(32:0)]
[1]; [M+Na]+
  collision cross section (N2): 278.8 Å²
[1]; [M-H]-
  collision cross section (N2): 263.91 Å²

## CCCCCC/C=C\CCCCCCCC(=O)OCC(COP(=O)(O)OCC(O)CO)OC(=O)CCCCCCCCCCCCCCC (stereo unspecified) [PG(32:1)]
[1]; [M+Na]+
  collision cross section (N2): 275.15 Å²
[1]; [M-H]-
  collision cross section (N2): 262.68 Å²

## CCCCCC/C=C\CCCCCCCC(=O)OCC(COP(=O)(O)OCC(O)CO)OC(=O)CCCCCCC/C=C\CCCCCCCC (stereo unspecified) [PG(34:2)]
[1]; [M+Na]+
  collision cross section (N2): 278.38 Å²
[1]; [M-H]-
  collision cross section (N2): 267.97 Å²

## CCCCCC/C=C\CCCCCCCC(=O)OCC(COP(=O)(O)OCC(O)CO)OC(=O)CCCCCCCC1CC1CCCCCCCC (stereo unspecified) [PG(35:2)]
[1]; [M+Na]+
  collision cross section (N2): 281.82 Å²
[1]; [M-H]-
  collision cross section (N2): 271.85 Å²
